Measurements published in patent US11566007B2, “Ras inhibitors” (Revolution Medicines, Inc., priority 2019, dated 2023).
“And” between values parts separate entries of the source, which are not always exact repeats. Equal entries are not always repeated. Where two headings read alike, the source gives them in different places.

Assays:
[1] = target: K-Ras G12C (Homo sapiens (Human), UniProt P01116+P62937, G12C); assay: Ras-Raf (BRAF RBD) disruption / FRET / MOA assay, KRAS G12C; assay type: biochemical; details: KRAS G12C; Ras-Raf disruption/FRET/MOA assay; read-out: IC50* KRAS G12C FRET data
Outline: (§1)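 Compound-driven ternary complex of nucleotide-loaded Ras with cyclophilin A, disrupting BRAF RBD binding. 10-point 3-fold dilution from 30 μM final, 3 h at 25° C, then anti-His Eu-W1024 (10 nM) and anti-GST allophycocyanin (50 nM) for 1.5 h. IC50 from TR-FRET ratio decrease versus DMSO.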

[2] = target: K-Ras G13C (Homo sapiens (Human), UniProt P01116+P62937, G13C); assay: Ras-Raf (BRAF RBD) disruption / FRET / MOA assay, KRAS G13C; assay type: biochemical; details: KRAS G13C; Ras-Raf disruption/FRET/MOA assay; read-out: IC50* KRAS G13C FRET data
Outline: as §1

[3] = target: KRAS G12S (Homo sapiens (Human), UniProt P01116+P62937, G12S); assay: Ras-Raf (BRAF RBD) disruption / FRET / MOA assay, KRAS G12S; assay type: biochemical; details: Ras-Raf disruption/FRET/MOA assay; class symbols; read-out: KRAS G12S FRET data IC50
Outline: as §1

[4] = target: KRAS G12D (Homo sapiens (Human), UniProt P01116+P62937, G12D); assay: Ras-Raf (BRAF RBD) disruption / FRET / MOA assay, KRAS G12D; assay type: biochemical; details: Ras-Raf disruption/FRET/MOA assay; class symbols; read-out: KRAS G12D FRET data IC50
Outline: as §1

[5] = target: KRAS G12V (Homo sapiens (Human), UniProt P01116+P62937, G12V); assay: Ras-Raf (BRAF RBD) disruption / FRET / MOA assay, KRAS G12V; assay type: biochemical; details: read-out: IC50* KRAS G12V FRET data
Outline: as §1

[6] = target: KRAS WT (Homo sapiens (Human), UniProt P01116+P62937); assay: Ras-Raf (BRAF RBD) disruption / FRET / MOA assay, KRAS WT; assay type: biochemical; details: read-out: IC50* KRAS WT FRET data
Outline: as §1

[7] = target: KRAS G13D (Homo sapiens (Human), UniProt P01116+P62937, G13D); assay: Ras-Raf (BRAF RBD) disruption / FRET / MOA assay, KRAS G13D; assay type: biochemical; details: read-out: IC50* KRAS G13D FRET data
Outline: as §1

[8] = target: KRAS Q61H (Homo sapiens (Human), UniProt P01116+P62937, Q61H); assay: Ras-Raf (BRAF RBD) disruption / FRET / MOA assay, KRAS Q61H; assay type: biochemical; details: Ras-Raf disruption/FRET/MOA assay; class symbols; read-out: KRAS Q61H FRET data IC50
Description: (§2) The purpose of this biochemical assay is to measure the ability of test compounds to facilitate ternary complex formation between a nucleotide-loaded Ras isoform and cyclophilin A; the resulting ternary complex disrupts binding to a BRAF^RBD construct, inhibiting Ras signaling through a RAF effector.
(§3) […]. Compound is present in plate wells as a 10-point 3-fold dilution series starting at a final concentration of 30 μM. After incubation at 25° C. for 3 hours, a mixture of Anti-His Eu-W1024 and anti-GST allophycocyanin is then added to assay sample wells at final concentrations of 10 nM and 50 nM, respectively, and the reaction incubated for an additional 1.5 hours. […] Compounds that facilitate disruption of a Ras:RAF complex are identified as those eliciting a decrease in the TR-FRET ratio relative to DMSO control wells.
(§4) Note—The following protocol describes a procedure for monitoring disruption of K-Ras G12C (GMP-PNP) binding to BRAF^RBD by a compound of the invention. This protocol may also be executed substituting other Ras proteins or nucleotides.
(§5) The purpose of this biochemical assay was to measure the ability of test compounds to facilitate ternary complex formation between a nucleotide-loaded K-Ras isoform and Cyclophilin A; the resulting ternary complex disrupts binding to a BRAF^RBD construct, inhibiting K-Ras signaling through a RAF effector. Data is reported as IC50 values.
as §3, with “Compound was” for “Compound is”, “allophycocyanin was” for “allophycocyanin is”, “a K-Ras:RAF” for “a Ras:RAF”, “complex were” for “complex are”

[9] = target: NRAS G12C (Homo sapiens (Human), UniProt P01111+P62937, G12C); assay: Ras-Raf (BRAF RBD) disruption / FRET / MOA assay, NRAS G12C; assay type: biochemical; details: read-out: IC50* NRAS G12C FRET data
Outline: as §1

[10] = target: NRAS Q61R (Homo sapiens (Human), UniProt P01111+P62937, Q61R); assay: Ras-Raf (BRAF RBD) disruption / FRET / MOA assay, NRAS Q61R; assay type: biochemical; details: NRAS Q61R; Ras-Raf disruption/FRET/MOA assay; read-out: IC50* NRAS Q61R FRET data
Description: as §2, §3, §4, §5
as §3, with “Compound was” for “Compound is”, “allophycocyanin was” for “allophycocyanin is”, “a K-Ras:RAF” for “a Ras:RAF”, “complex were” for “complex are”

[11] = target: NRAS Q61K (Homo sapiens (Human), UniProt P01111+P62937, Q61K); assay: Ras-Raf (BRAF RBD) disruption / FRET / MOA assay, NRAS Q61K; assay type: biochemical; details: NRAS Q61K; Ras-Raf disruption/FRET/MOA assay; read-out: IC50* NRAS Q61K FRET data
Description: as §2, §3, §4, §5
as §3, with “Compound was” for “Compound is”, “allophycocyanin was” for “allophycocyanin is”, “a K-Ras:RAF” for “a Ras:RAF”, “complex were” for “complex are”

[12] = target: NRAS WT (Homo sapiens (Human), UniProt P01111+P62937); assay: Ras-Raf (BRAF RBD) disruption / FRET / MOA assay, NRAS WT; assay type: biochemical; details: read-out: IC50* NRAS WT FRET data
Description: as §2, §3, §4, §5
as §3, with “Compound was” for “Compound is”, “allophycocyanin was” for “allophycocyanin is”, “a K-Ras:RAF” for “a Ras:RAF”, “complex were” for “complex are”

[13] = test system: NCI-H358 cells (K-Ras G12C); assay: Potency assay: pERK in NCI-H358 cells; assay type: cell-based, human; details: H358 KRAS G12C, read-out: pERK EC50
Outline: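 4 h cpd, 37 °C; 10-pt 3-fold series, 10 mM DMSO top stock, duplicates. Readout pERK: AlphaLISA SureFire Ultra or In-Cell Western (IR-800CW secondary, DRAQ5 DNA stain). IC50, 4-PL fit vs log conc.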

Sequence of KRAS G12D (P01116-2 other isoform, or with tags, fused parts or gaps G12D): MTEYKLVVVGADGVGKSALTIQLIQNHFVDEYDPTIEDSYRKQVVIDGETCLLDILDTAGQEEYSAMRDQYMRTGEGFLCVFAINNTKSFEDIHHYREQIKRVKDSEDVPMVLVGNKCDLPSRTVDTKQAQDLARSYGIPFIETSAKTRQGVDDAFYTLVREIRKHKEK
Sequence of KRAS G12D (P62937 whole entry): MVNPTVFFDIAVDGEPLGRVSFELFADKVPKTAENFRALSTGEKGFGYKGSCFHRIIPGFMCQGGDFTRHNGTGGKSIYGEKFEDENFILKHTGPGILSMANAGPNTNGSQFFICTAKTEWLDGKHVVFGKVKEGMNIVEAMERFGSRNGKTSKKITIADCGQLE
Sequence of NRAS G12C (P01111 whole entry G12C): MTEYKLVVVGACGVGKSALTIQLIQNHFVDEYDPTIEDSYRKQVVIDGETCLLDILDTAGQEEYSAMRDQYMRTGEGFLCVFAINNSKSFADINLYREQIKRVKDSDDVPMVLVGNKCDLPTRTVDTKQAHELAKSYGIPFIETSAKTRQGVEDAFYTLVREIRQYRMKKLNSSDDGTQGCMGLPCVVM
Sequence of NRAS G12C (P62937 whole entry): as the sequence (P62937 whole entry) above
Sequence of KRAS Q61H (P01116-2 other isoform, or with tags, fused parts or gaps Q61H): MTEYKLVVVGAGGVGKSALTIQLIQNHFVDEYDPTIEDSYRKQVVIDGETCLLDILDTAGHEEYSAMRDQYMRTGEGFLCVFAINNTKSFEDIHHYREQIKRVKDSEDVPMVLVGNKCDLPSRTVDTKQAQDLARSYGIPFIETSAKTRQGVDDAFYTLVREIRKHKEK
Sequence of KRAS Q61H (P62937 whole entry, canonical isoform): as the sequence (P62937 whole entry) above
Sequence of KRAS G12V (P01116-2 other isoform, or with tags, fused parts or gaps G12V): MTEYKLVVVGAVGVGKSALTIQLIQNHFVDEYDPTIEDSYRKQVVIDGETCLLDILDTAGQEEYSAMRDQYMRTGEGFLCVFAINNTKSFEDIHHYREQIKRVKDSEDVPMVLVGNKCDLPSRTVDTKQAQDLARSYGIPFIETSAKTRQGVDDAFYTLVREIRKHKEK
Sequence of KRAS G12V (P62937 whole entry): as the sequence (P62937 whole entry) above
Sequence of NRAS Q61R (P01111 whole entry Q61R): as the sequence (P01111 whole entry G12C) above, with C12G, Q61R counted along it
Sequence of NRAS Q61R (P62937 whole entry): as the sequence (P62937 whole entry) above
Sequence of KRAS G13D (P01116-2 other isoform, or with tags, fused parts or gaps G13D): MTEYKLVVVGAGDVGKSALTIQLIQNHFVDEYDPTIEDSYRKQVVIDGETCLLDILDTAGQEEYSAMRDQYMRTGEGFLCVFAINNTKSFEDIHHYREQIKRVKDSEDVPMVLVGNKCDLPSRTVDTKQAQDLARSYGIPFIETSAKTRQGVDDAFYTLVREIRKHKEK
Sequence of KRAS G13D (P62937 whole entry): as the sequence (P62937 whole entry) above
Sequence of K-Ras G13C (P01116-2 other isoform, or with tags, fused parts or gaps G13C): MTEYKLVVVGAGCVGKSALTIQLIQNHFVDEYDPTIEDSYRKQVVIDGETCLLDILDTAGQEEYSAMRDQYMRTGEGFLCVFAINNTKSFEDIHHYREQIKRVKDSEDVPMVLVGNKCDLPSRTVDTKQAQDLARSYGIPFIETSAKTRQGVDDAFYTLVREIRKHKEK
Sequence of K-Ras G13C (P62937 whole entry): as the sequence (P62937 whole entry) above
Sequence of K-Ras G12C (P01116-2 other isoform, or with tags, fused parts or gaps G12C): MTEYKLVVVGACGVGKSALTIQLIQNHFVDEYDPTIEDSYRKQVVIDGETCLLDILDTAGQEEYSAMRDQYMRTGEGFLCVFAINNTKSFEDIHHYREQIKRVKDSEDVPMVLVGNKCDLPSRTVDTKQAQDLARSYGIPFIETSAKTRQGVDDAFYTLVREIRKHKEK
Sequence of K-Ras G12C (P62937 whole entry): as the sequence (P62937 whole entry) above
Sequence of KRAS G12S (P01116-2 other isoform, or with tags, fused parts or gaps G12S): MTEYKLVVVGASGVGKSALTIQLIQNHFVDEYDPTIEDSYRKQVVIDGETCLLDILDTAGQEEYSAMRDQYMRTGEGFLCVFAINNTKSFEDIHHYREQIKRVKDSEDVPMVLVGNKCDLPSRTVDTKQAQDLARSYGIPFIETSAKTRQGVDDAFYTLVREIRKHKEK
Sequence of KRAS G12S (P62937 whole entry): as the sequence (P62937 whole entry) above
Sequence of NRAS WT (P01111 whole entry): as the sequence (P01111 whole entry G12C) above, with C12G counted along it
Sequence of NRAS WT (P62937 whole entry): as the sequence (P62937 whole entry) above
Sequence of NRAS Q61K (P01111 whole entry Q61K): as the sequence (P01111 whole entry G12C) above, with C12G, Q61K counted along it
Sequence of NRAS Q61K (P62937 whole entry): as the sequence (P62937 whole entry) above
Sequence of KRAS WT (P01116-2 other isoform, or with tags, fused parts or gaps): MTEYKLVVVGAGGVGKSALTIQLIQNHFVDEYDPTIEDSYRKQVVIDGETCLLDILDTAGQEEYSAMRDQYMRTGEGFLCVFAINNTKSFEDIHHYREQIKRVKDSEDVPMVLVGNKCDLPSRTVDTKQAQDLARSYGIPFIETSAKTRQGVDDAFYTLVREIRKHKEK
Sequence of KRAS WT (P62937 whole entry): as the sequence (P62937 whole entry) above

SMILES	IC50 [1]	IC50 [2]	IC50 [3]	IC50 [4]	IC50 [5]	IC50 [6]	IC50 [7]	IC50 [8]	IC50 [9]	IC50 [10]	IC50 [11]	IC50 [12]	EC50 ([13]; Homo sapiens, NCI-H358)	EC50 [13]
C=CC(=O)N1CC[C@H](C(=O)N(C)[C@H](C(=O)N[C@H]2Cc3cc(sn3)-c3ccc4c(c3)c(c(-c3cccnc3[C@H](C)OC)n4CC)CC(C)(C)COC(=O)[C@@H]3CCCN(N3)C2=O)C(C)C)C1 (atropisomer, axis not shown) [Example A340]	0.1 to 1 µM	0.1 to 1 µM	1 to 10 µM	> 10 µM	1 to 10 µM	1 to 10 µM	1 to 10 µM	0.1 to 1 µM	0.1 to 1 µM	1 to 10 µM	0.1 to 1 µM	0.1 to 1 µM		
CO[C@@H](C)c1ncccc1-c1c2c3cc(ccc3n1CC(F)(F)F)-c1cc(cc(C(F)F)c1)C[C@H](NC(=O)[C@H](C(C)C)N(C)C(=O)[C@H]1CCN(C(=O)C#CC(C)(C)N3CCC3)C1)C(=O)N1CCC[C@H](N1)C(=O)OCC(C)(C)C2 (atropisomer, axis not shown) [Example A370]	0.01 to 0.1 µM	0.1 to 1 µM	1 to 10 µM	1 to 10 µM	1 to 10 µM	1 to 10 µM	1 to 10 µM	1 to 10 µM	0.01 to 0.1 µM	1 to 10 µM	1 to 10 µM	1 to 10 µM	< 5 µM	
C=CC(=O)N1CC[C@H](C(=O)N(C)[C@H](C(=O)N[C@H]2C[C@H]3CN(CCO3)c3ccc4c(c3)c(c(-c3cccnc3[C@H](C)OC)n4CC)CC(C)(C)COC(=O)[C@@H]3CCCN(N3)C2=O)C(C)C)C1 (atropisomer, axis not shown) [Example A378]	0.1 to 1 µM	1 to 10 µM	1 to 10 µM	> 10 µM	1 to 10 µM	1 to 10 µM	> 10 µM	> 10 µM	0.1 to 1 µM	> 10 µM	> 10 µM	1 to 10 µM	< 5 µM	
CCn1c(-c2cccnc2[C@H](C)OC)c2c3cc(ccc31)-c1cccc(c1)C[C@H](NC(=O)[C@H](C1CCCC1)N(C)C(=O)[C@@H]1CN(C(=O)C#CC(C)(C)N(C)C)C[C@@H]1C)C(=O)N1CCC[C@H](N1)C(=O)OCC(C)(C)C2 (atropisomer, axis not shown) [Example A391]	< 0.01 µM	1 to 10 µM	1 to 10 µM	> 10 µM	1 to 10 µM	1 to 10 µM	1 to 10 µM	1 to 10 µM	< 0.01 µM	1 to 10 µM	1 to 10 µM	1 to 10 µM	< 5 µM	
C=CC(=O)N1CC[C@H](C(=O)N(C)[C@H](C(=O)N[C@H]2CC3=CCCN(C3)c3ccc4c(c3)c(c(-c3cccnc3[C@H](C)OC)n4CC)CC(C)(C)COC(=O)[C@@H]3CCCN(N3)C2=O)C(C)C)C1 (atropisomer, axis not shown) [Example A486]	0.1 to 1 µM	1 to 10 µM	> 10 µM	> 10 µM	> 10 µM	> 10 µM	> 10 µM	> 10 µM	0.1 to 1 µM	> 10 µM	> 10 µM	> 10 µM	< 5 µM	
C=CC(=O)N1CC[C@H](C(=O)N(C)[C@H](C(=O)N[C@H]2Cc3cc(O)cc(c3)-c3ccc4c(c3)c(c(-c3cc(CN(C)C)cnc3[C@H](C)OC)n4CC)CC(C)(C)COC(=O)[C@@H]3CCCN(N3)C2=O)C(C)C)C1 (atropisomer, axis not shown) [Example A537]		0.01 to 0.1 µM	0.01 to 0.1 µM	0.1 to 1 µM	0.01 to 0.1 µM	0.01 to 0.1 µM	0.01 to 0.1 µM	0.01 to 0.1 µM	< 0.01 µM	0.1 to 1 µM	0.1 to 1 µM	0.01 to 0.1 µM		< 5 µM
CO[C@@H](C)c1ncc(N2CCN(C)CC2)cc1-c1c2c3cc(ccc3n1CC(F)(F)F)-c1cccc(c1)C[C@H](NC(=O)[C@H](C(C)C)N(C)C(=O)C1(F)CCN(C(=O)C#CC(C)(C)N(C)C)CC1)C(=O)N1CCC[C@H](N1)C(=O)OCC(C)(C)C2 (atropisomer, axis not shown) [Example A542, 1-(4-(dimethylamino)-4-methylpent-2-ynoyl)-4-fluoro-N-((2S)-1-(((6^3S,4S)-1^2-(2-((S)-1-methoxyethyl)-5-(4-methylpiperazin-1-yl)pyridin-3-yl)-10,10-dimethyl-5,7-dioxo-1^1-(2,2,2-trifluoroethyl)-6^1,6^2,6^3,6^4,6^5,6^6-hexahydro-1^1H-8-oxa-1(5,3)-indola-6(1,3)-pyridazina-2(1,3)-benzenacycloundecaphane-4-yl)amino)-3-methyl-1-oxobutan-2-yl)-N-methylpiperidine-4-carboxamide]	< 0.01 µM	< 0.01 µM	0.01 to 0.1 µM	0.1 to 1 µM	0.01 to 0.1 µM	0.01 to 0.1 µM	0.01 to 0.1 µM	0.01 to 0.1 µM	< 0.01 µM	0.01 to 0.1 µM	0.01 to 0.1 µM	0.01 to 0.1 µM	< 5 µM	
C=CC(=O)N1CC[C@H](C(=O)N(C)C(C(=O)N[C@H]2C[C@H]3CN(CCO3)c3ccc4c(c3)c(c(-c3cccnc3[C@H](C)OC)n4CC)CC(C)(C)COC(=O)[C@@H]3CCCN(N3)C2=O)C(C)C)C1 (mixture of isomers) [Example A507]	0.1 to 1 µM	1 to 10 µM	1 to 10 µM	> 10 µM	1 to 10 µM	> 10 µM	> 10 µM	> 10 µM	0.1 to 1 µM	> 10 µM	> 10 µM	1 to 10 µM		
C=CC(=O)N1CC[C@H](C(=O)N(C)[C@H](C(=O)N[C@H]2Cc3cc(O)cc(c3)-c3ccc4c(c3)c(c(-c3cccnc3)n4C(C)(C)C#N)CC(C)(C)COC(=O)[C@@H]3CCCN(N3)C2=O)C(C)C)C1 [Example A148]	0.01 to 0.1 µM and 1 to 10 µM	> 10 µM and 1 to 10 µM	0.1 to 1 µM and > 10 µM	1 to 10 µM and > 10 µM	0.1 to 1 µM and > 10 µM	0.1 to 1 µM and > 10 µM	1 to 10 µM and > 10 µM	0.01 to 0.1 µM		0.1 to 1 µM	0.1 to 1 µM	0.1 to 1 µM	< 5 µM	
